The term IC50 denotes the concentration at which inhibition is half-maximal. Higher therefore signals weaker potency in that assay.

For this test, the target named is T1, Neprilysin (Rattus norvegicus, UniProt P07861).
T1 sequence (P07861 whole entry): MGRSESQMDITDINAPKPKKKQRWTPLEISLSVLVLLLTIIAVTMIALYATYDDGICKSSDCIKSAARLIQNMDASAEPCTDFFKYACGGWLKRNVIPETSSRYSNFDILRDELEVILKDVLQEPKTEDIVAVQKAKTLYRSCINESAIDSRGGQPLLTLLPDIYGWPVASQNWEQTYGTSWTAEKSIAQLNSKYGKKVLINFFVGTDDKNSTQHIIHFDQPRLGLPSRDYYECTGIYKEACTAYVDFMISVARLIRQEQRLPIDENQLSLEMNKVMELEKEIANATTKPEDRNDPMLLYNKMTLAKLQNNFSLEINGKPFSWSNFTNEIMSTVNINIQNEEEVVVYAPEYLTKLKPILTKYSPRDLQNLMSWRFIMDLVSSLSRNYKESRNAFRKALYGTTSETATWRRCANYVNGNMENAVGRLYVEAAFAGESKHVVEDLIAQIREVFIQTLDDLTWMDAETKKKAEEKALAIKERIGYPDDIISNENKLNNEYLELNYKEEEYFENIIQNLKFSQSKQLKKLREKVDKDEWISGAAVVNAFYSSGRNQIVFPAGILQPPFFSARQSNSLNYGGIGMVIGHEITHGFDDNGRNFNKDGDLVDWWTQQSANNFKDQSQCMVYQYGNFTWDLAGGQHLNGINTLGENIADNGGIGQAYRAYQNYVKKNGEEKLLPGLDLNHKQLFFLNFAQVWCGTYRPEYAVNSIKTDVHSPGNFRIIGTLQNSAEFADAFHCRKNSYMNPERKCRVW
Briefly: In vitro inhibitory activity against neutral endopeptidase (NEP 24.11) from rat kidney cortex membranes.
`O=C(O)CCNC(=O)C(CCP(=O)(O)O)Cc1ccc(-c2ccccc2)cc1` (stereo not given) yielded an IC50 of 1000 nM. The figure for `O=C(O)CCNC(=O)C(Cc1ccc(-c2ccccc2)cc1)SCP(=O)(O)O` (stereo not given) is 797 nM.

With `O=C(O)CCNC(=O)[C@H](Cc1ccc(-c2ccccc2)cc1)NCP(=O)(O)O`, 1.6 nM corresponded to half-maximal inhibition (IC50). The figure for `O=C(O)CCNC(=O)C(Cc1ccc(-c2ccccc2)cc1)S(=O)(=O)CP(=O)(O)O` (stereo not given) is above 10000 nM.

Compound `O=C(O)CCNC(=O)C(Cc1ccc(-c2ccccc2)cc1)OCP(=O)(O)O` (stereo not given) gave an IC50 of 9.5 nM.

For the origin of these results see ChEMBL document CHEMBL1127245, “The effect of heteroatom substitution on a series of phosphonate inhibitors of neutral endopeptidase 24.11” (Bioorg Med Chem Lett, 1994).
